Experimental data reported in ChEMBL document CHEMBL3885881, “DrugMatrix”.

Species: Rattus norvegicus
Experiment: DrugMatrix - Regimen: Daily Repeat
Format: toxicity, organism-based, Sprague-Dawley
Design: regimen Daily Repeat, gender Male, age 6-8 weeks
Conditions: in vivo, iv, […], vehicle 100 % SALINE; for MONOCYTE / NEUTROPHIL / NUCLEATED RED BLOOD CELLS / ABSOLUTE BASOPHIL / ABSOLUTE EOSINOPHIL / ABSOLUTE LYMPHOCYTE / ABSOLUTE MONOCYTE / ABSOLUTE SEGMENTED NEUTROPHIL / BASOPHIL / EOSINOPHIL / ERYTHROCYTE COUNT / HEMATOCRIT / HEMOGLOBIN / LEUKOCYTE COUNT / LYMPHOCYTE / MEAN CORPUSCULAR HEMOGLOBIN / MEAN CORPUSCULAR HEMOGLOBIN CONCENTRATION / MEAN CORPUSCULAR VOLUME: tissue Blood; for ALANINE AMINOTRANSFERASE / ALKALINE PHOSPHATASE / ASPARTATE AMINOTRANSFERASE / BLOOD UREA NITROGEN / CARBON DIOXIDE / CHOLESTEROL / CREATINE PHOSPHOKINASE / CREATININE / GLUCOSE / LACTATE DEHYDROGENASE / LIPASE / SODIUM / TOTAL BILIRUBIN / TOTAL PROTEIN / URIC ACID: tissue Plasma
[1] = 72 h, dose 2.7 mg/Kg, dose level High, time 3 day
[2] = 72 h, dose 0.27 mg/Kg, dose level Low, time 3 day
[3] = 120 h, dose 0.27 mg/Kg, dose level Low, time 5 day
[4] = 120 h, dose 2.7 mg/Kg, dose level High, time 5 day

SMILES: COc1cccc2c1C(=O)c1c(O)c3c(c(O)c1C2=O)C[C@@](O)(C(=O)CO)C[C@@H]3O[C@H]1C[C@H](N)[C@@H](O)[C@H](C)O1 [EPIRUBICIN]
- MONOCYTE [1]: 0.67%
- NEUTROPHIL [1]: 8.67%
- NUCLEATED RED BLOOD CELLS [1]: 0 /100WBC
- ALANINE AMINOTRANSFERASE [2]: 37 u/L
- ALKALINE PHOSPHATASE [2]: 440.33 u/L
- ASPARTATE AMINOTRANSFERASE [2]: 76.33 u/L
- BLOOD UREA NITROGEN [2]: 17 mg/dL
- CARBON DIOXIDE [2]: 25 mmol/L
- CHOLESTEROL [2]: 79.67 mg/dL
- CREATINE PHOSPHOKINASE [2]: 317.67 u/L
- CREATININE [2]: 0.15 mg/dL
- GLUCOSE [2]: 161.33 mg/dL
- LACTATE DEHYDROGENASE [2]: 433 u/L
- LIPASE [2]: 9.33 u/L
- SODIUM [2]: 143.3 MEQ/L
- TOTAL BILIRUBIN [2]: 0.2 mg/dL
- TOTAL PROTEIN [2]: 5.67 G/DL
- URIC ACID [2]: 1.5 mg/dL
- ALANINE AMINOTRANSFERASE [1]: 33 u/L
- ALKALINE PHOSPHATASE [1]: 297.33 u/L
- ASPARTATE AMINOTRANSFERASE [1]: 83.67 u/L
- BLOOD UREA NITROGEN [1]: 13 mg/dL
- CARBON DIOXIDE [1]: 26.33 mmol/L
- CHOLESTEROL [1]: 96.33 mg/dL
- CREATINE PHOSPHOKINASE [1]: 442.33 u/L
- CREATININE [1]: 0.12 mg/dL
- GLUCOSE [1]: 146.33 mg/dL
- LACTATE DEHYDROGENASE [1]: 682.67 u/L
- LIPASE [1]: 10 u/L
- SODIUM [1]: 143.33 MEQ/L
- TOTAL BILIRUBIN [1]: 0.0667 mg/dL
- TOTAL PROTEIN [1]: 5.73 G/DL
- URIC ACID [1]: 1.43 mg/dL
- ABSOLUTE BASOPHIL [3]: 0 CELLS/uL
- ABSOLUTE EOSINOPHIL [3]: 0 CELLS/uL
- ABSOLUTE LYMPHOCYTE [3]: 12433.67 CELLS/uL
- ABSOLUTE MONOCYTE [3]: 229 CELLS/uL
- ABSOLUTE SEGMENTED NEUTROPHIL [3]: 504 CELLS/uL
- BASOPHIL [3]: 0%
- EOSINOPHIL [3]: 0%
- ERYTHROCYTE COUNT [3]: 5.91 x10E6/uL
- HEMATOCRIT [3]: 37.27%
- HEMOGLOBIN [3]: 14.33 G/DL
- LEUKOCYTE COUNT [3]: 13.17 x10E3/uL
- LYMPHOCYTE [3]: 94.33%
- MEAN CORPUSCULAR HEMOGLOBIN [3]: 24.27 pg
- MEAN CORPUSCULAR HEMOGLOBIN CONCENTRATION [3]: 38.5 G/DL
- MEAN CORPUSCULAR VOLUME [3]: 63.07 fL
- MONOCYTE [3]: 1.67%
- NEUTROPHIL [3]: 4%
- NUCLEATED RED BLOOD CELLS [3]: 0 /100WBC
- ABSOLUTE BASOPHIL [4]: 0 CELLS/uL
- ABSOLUTE EOSINOPHIL [4]: 0 CELLS/uL
- ABSOLUTE LYMPHOCYTE [4]: 1316 CELLS/uL
- ABSOLUTE MONOCYTE [4]: 12 CELLS/uL
- ABSOLUTE SEGMENTED NEUTROPHIL [4]: 72 CELLS/uL
- BASOPHIL [4]: 0%
- EOSINOPHIL [4]: 0%
- ERYTHROCYTE COUNT [4]: 6.07 x10E6/uL
- HEMATOCRIT [4]: 37.4%
- HEMOGLOBIN [4]: 15.17 G/DL
- LEUKOCYTE COUNT [4]: 1.4 x10E3/uL
- LYMPHOCYTE [4]: 94%
- MEAN CORPUSCULAR HEMOGLOBIN [4]: 25.13 pg
- MEAN CORPUSCULAR HEMOGLOBIN CONCENTRATION [4]: 40.6 G/DL
- MEAN CORPUSCULAR VOLUME [4]: 61.83 fL
- MONOCYTE [4]: 1%
- NEUTROPHIL [4]: 5%
- NUCLEATED RED BLOOD CELLS [4]: 0 /100WBC
- ALANINE AMINOTRANSFERASE [3]: 57.67 u/L
- ALKALINE PHOSPHATASE [3]: 390.33 u/L
- ASPARTATE AMINOTRANSFERASE [3]: 107.33 u/L
- BLOOD UREA NITROGEN [3]: 16.67 mg/dL
- CARBON DIOXIDE [3]: 25 mmol/L
- CHOLESTEROL [3]: 75 mg/dL
- CREATINE PHOSPHOKINASE [3]: 510.67 u/L
- CREATININE [3]: 0.16 mg/dL
- GLUCOSE [3]: 152 mg/dL
- LACTATE DEHYDROGENASE [3]: 825.67 u/L
- LIPASE [3]: 9 u/L
- SODIUM [3]: 144.37 MEQ/L
- TOTAL BILIRUBIN [3]: 0.17 mg/dL
- TOTAL PROTEIN [3]: 5.9 G/DL
- URIC ACID [3]: 1.63 mg/dL
- ALANINE AMINOTRANSFERASE [4]: 29 u/L
- ALKALINE PHOSPHATASE [4]: 172 u/L
- ASPARTATE AMINOTRANSFERASE [4]: 79.33 u/L
- BLOOD UREA NITROGEN [4]: 20.67 mg/dL
- CARBON DIOXIDE [4]: 28 mmol/L
- CHOLESTEROL [4]: 93 mg/dL
- CREATINE PHOSPHOKINASE [4]: 725.67 u/L
- CREATININE [4]: 0.12 mg/dL
- GLUCOSE [4]: 151.33 mg/dL
- LACTATE DEHYDROGENASE [4]: 374.33 u/L
- LIPASE [4]: 8.67 u/L
- SODIUM [4]: 141.7 MEQ/L
- TOTAL BILIRUBIN [4]: 0.0667 mg/dL
- TOTAL PROTEIN [4]: 5.67 G/DL
- URIC ACID [4]: 1.37 mg/dL
